Results reported in ChEMBL document CHEMBL3351326, “Discovery of substituted 6-pheny-3H-pyridazin-3-one derivatives as novel c-Met kinase inhibitors” (Bioorg Med Chem Lett, 2014).

Key:
[1] = Cytotoxicity against human U87MG cells after 72 hrs by WST8 assay; format: functional, cell-based, U-87MG ATCC; details: U-87 MG
NCI-H1993 = experiment: Cytotoxicity against human NCI-H1993 cells after 72 hrs by WST8 assay; details: NCI-H1993, 72 h
[2] = Cytotoxicity against human NCI-H3122 cells after 72 hrs by WST8 assay; details: NCI-H3122, 72 h
cells = details: Homo sapiens, Hs746T, 72 h
Description: Cytotoxicity against human Hs 746T cells after 72 hrs by WST8 assay

SMILES	IC50 (cells)	IC50 [1]	IC50 (NCI-H1993)	IC50 [2]
Cn1cc(-c2cnc(N3CCO[C@H](Cn4nc(-c5ccc(OCc6ccccc6)cc5)ccc4=O)C3)nc2)cn1	3.02 µM	7.6 µM	4.1 µM	> 10 µM
O=c1ccc(-c2cc(F)c(F)c(F)c2)nn1C[C@@H]1CN(c2ncc(-c3cnn(C4CCN(CCO)CC4)c3)cn2)CCO1	0.19 µM	4.07 µM	–	> 10 µM
CN1CCC(COc2cnc(N3CCO[C@H](Cn4nc(-c5cccc(C#N)c5)ccc4=O)C3)nc2)CC1	0.43 µM	> 10 µM	2.4 µM	> 10 µM
N#Cc1cccc(-c2ccc(=O)n(C[C@@H]3CN(c4ncc(-c5cnn(CC6CCN(CCO)CC6)c5)cn4)CCO3)n2)c1	0.0034 µM	> 10 µM	2.1 µM	> 10 µM
N#Cc1cccc(-c2ccc(=O)n(C[C@@H]3CN(c4ncc(C5=CCNCC5)cn4)CCO3)n2)c1	0.74 µM	9.7 µM	3.8 µM	> 10 µM
CN1CC=C(c2cnc(N3CCO[C@H](Cn4nc(-c5cccc(C#N)c5)ccc4=O)C3)nc2)CC1	1.2 µM	> 10 µM	4.1 µM	> 10 µM
N#Cc1cccc(-c2ccc(=O)n(C[C@@H]3CN(c4ncc(C5=CCN(CCO)CC5)cn4)CCO3)n2)c1	0.21 µM	> 10 µM	2.5 µM	> 10 µM
N#Cc1cccc(-c2ccc(=O)n(C[C@@H]3CN(c4ncc(-c5ccc(OCCN6CCOCC6)cc5)cn4)CCO3)n2)c1	0.41 µM	3.4 µM	1.8 µM	> 10 µM
N#Cc1cccc(-c2ccc(=O)n(C[C@@H]3CN(c4ncc(-c5ccc(OCCN6CCOCC6)c(Cl)c5)cn4)CCO3)n2)c1	1.42 µM	1.4 µM	1.2 µM	> 10 µM
N#Cc1cccc(-c2ccc(=O)n(C[C@@H]3CN(c4ncc(-c5ccnc(F)c5)cn4)CCO3)n2)c1	7.15 µM	> 10 µM	7.4 µM	> 10 µM
CN1CCN(c2ccc(-c3cnc(N4CCO[C@H](Cn5nc(-c6cccc(C#N)c6)ccc5=O)C4)nc3)cn2)CC1	0.65 µM	1.6 µM	1.3 µM	1.4 µM
N#Cc1cccc(-c2ccc(=O)n(C[C@@H]3CN(c4ncc(-c5ccc(OCCN6CCOCC6)nc5)cn4)CCO3)n2)c1	0.74 µM	–	3.7 µM	9.8 µM

The next lines start with results.

IC50 (cells)	SMILES	IC50 [1]	IC50 (NCI-H1993)	IC50 [2]
0.071 µM	O=c1ccc(-c2ccc(F)c(Cl)c2)nn1C[C@@H]1CN(c2ncc(-c3cnn(C4CCNCC4)c3)cn2)CCO1	1.2 µM	0.79 µM	1.7 µM
0.0012 µM	N#Cc1cccc(-c2ccc(=O)n(C[C@@H]3CN(c4ncc(-c5cnn(C6CCNCC6)c5)cn4)CCO3)n2)c1	> 10 µM	0.11 µM	> 10 µM
0.45 µM	O=c1ccc(-c2cc(F)cc(F)c2)nn1C[C@@H]1CN(c2ncc(-c3cnn(C4CCNCC4)c3)cn2)CCO1	3.2 µM	1.6 µM	1.9 µM
0.75 µM	O=c1ccc(-c2cccc(Cl)c2)nn1C[C@@H]1CN(c2ncc(-c3cnn(C4CCNCC4)c3)cn2)CCO1	9.9 µM	3.4 µM	> 10 µM
0.084 µM	O=c1ccc(-c2cccc(C(F)(F)F)c2)nn1C[C@@H]1CN(c2ncc(-c3cnn(C4CCNCC4)c3)cn2)CCO1	2.5 µM	1.3 µM	1.4 µM
0.23 µM	O=c1ccc(-c2cc(F)c(F)c(F)c2)nn1C[C@@H]1CN(c2ncc(-c3cnn(C4CCNCC4)c3)cn2)CCO1	1.5 µM	1.2 µM	1.5 µM
0.22 µM	O=c1ccc(-c2cccc(F)c2)nn1C[C@@H]1CN(c2ncc(-c3cnn(C4CCNCC4)c3)cn2)CCO1	4.9 µM	3.5 µM	7.5 µM
0.46 µM	O=c1ccc(-c2cccc(F)c2)nn1C[C@@H]1CN(c2ncc(-c3cnn(C4CCN(CCO)CC4)c3)cn2)CCO1	3.4 µM	3.2 µM	3.3 µM
0.28 µM	O=c1ccc(-c2ccc(F)cc2)nn1C[C@@H]1CN(c2ncc(-c3cnn(C4CCN(CCO)CC4)c3)cn2)CCO1	> 10 µM	3.8 µM	> 10 µM
0.46 µM	CN1CCC(n2cc(-c3cnc(N4CCO[C@H](Cn5nc(-c6cccc(F)c6)ccc5=O)C4)nc3)cn2)CC1	3.4 µM	3.2 µM	3.3 µM
0.48 µM	CN1CCC(n2cc(-c3cnc(N4CCO[C@H](Cn5nc(-c6cc(F)c(F)c(F)c6)ccc5=O)C4)nc3)cn2)CC1	9.1 µM	3.6 µM	7.6 µM
0.94 µM	CN1CCC(n2cc(-c3cnc(N4CCO[C@H](Cn5nc(-c6ccc(F)c(F)c6)ccc5=O)C4)nc3)cn2)CC1	> 10 µM	5.7 µM	> 10 µM
0.014 µM	CN1CCC(n2cc(-c3cnc(N4CCO[C@H](Cn5nc(-c6ccc(F)c(Cl)c6)ccc5=O)C4)nc3)cn2)CC1	1.5 µM	1.2 µM	1.4 µM
0.0007 µM	Cn1cc(-c2cnc(N3CCO[C@H](Cn4nc(-c5cccc(C#N)c5)ccc4=O)C3)nc2)cn1	> 1 µM	0.01 µM	> 1 µM
0.46 µM	N#Cc1cccc(-c2ccc(=O)n(C[C@@H]3CN(c4ncc(-c5cnn(CCOC6CCCCO6)c5)cn4)CCO3)n2)c1 (some centres undefined)	> 10 µM	2.6 µM	> 10 µM
0.18 µM	N#Cc1cccc(-c2ccc(=O)n(C[C@@H]3CN(c4ncc(-c5cnn(CCO)c5)cn4)CCO3)n2)c1	> 10 µM	1.5 µM	> 10 µM
0.013 µM	N#Cc1cccc(-c2ccc(=O)n(C[C@@H]3CN(c4ncc(-c5cnn(C6CCN(C7CCOCC7)CC6)c5)cn4)CCO3)n2)c1	> 10 µM	0.23 µM	> 10 µM
